Laboratory results reported in PubChem BioAssay AID2305 (GlaxoSmithKline (GSK), 2010).
“And” between values parts separate entries of the source, which are not always exact repeats. Identical values can stand only once.

system: P. falciparum 3D7 growth, pLDH absorbance; assay: blood-stage malaria parasite growth potency – strain 3D7, dose response (AID 2305)

SMILES | IC50
O=C(Nc1cc(Cl)cc(Cl)c1)Nc1ccnc2ccccc12 | 750 nM
CN(Cc1cccc(F)c1)C1CCCN(c2cc(NC(=O)c3ccccc3)ccn2)C1 (centres undefined) | 920 nM
O=S(=O)(c1ccc(OCc2ccc(Cl)cc2)cc1)c1cc2c(cc1OCc1ccccc1)CCN(C1CCC1)CC2 | 1020 nM
COc1ccc(CNc2ncc(-c3ccsc3)c(-c3nccs3)n2)cc1OC | 90 nM
COc1cc(Cc2cnc(N)nc2N)cc(OCC(C)(C)C(=O)O)c1OC | 1110 nM
CC(Cc1ccc([N+](=O)[O-])cc1)NCC(O)c1cccc(C(F)(F)F)c1 (centres undefined) | 900 nM
Cc1cc(C(=O)OCC(=O)Nc2c(C)n(C)n(-c3ccccc3)c2=O)c(C)n1-c1ccc(F)cc1 | 50 nM
Cc1cccc2[nH]c(-c3cccc(-c4cccc(NC(=O)CNC(=O)c5ccc(O)cc5)c4)c3)nc12 | 990 nM
O=C(NCc1cccc2ccccc12)C1CCCN(C(=O)c2ccc(O)c(-c3ccc(Cl)c(Cl)c3)c2)C1 (centres undefined) | 1030 nM
CC(=O)Nc1nc(C(=O)Nc2ccc(-c3cccc(-c4nc5ccccc5[nH]4)c3)cc2)cs1 | 550 nM
COc1cc2nc(N3CCC(CNC(=O)c4ccc(-c5ccc(C(=O)N(C)C)cc5)c(OCCO)c4)CC3)nc(N)c2cc1OC | 730 nM
NC1CCN(Cc2ccc(-c3ccc(-c4nc5ccccc5[nH]4)cc3)cc2)C1 (centres undefined) | 150 nM
CN1CCCC1CCNc1ncc2c(-c3ccc(NC(=O)Nc4cc(C(F)(F)F)ccc4F)c(F)c3)nn(C)c2n1 (centres undefined) | 290 nM
CCCCCN1CCC(NS(=O)(=O)c2cccc(C(=O)Nc3cccc(C(F)(F)F)c3)c2)C1 (centres undefined) | 830 nM
O=C(Nc1ccccc1Cl)N(Cc1cc(Cl)cc(Cl)c1)CC(O)COc1ccc(Cl)c(F)c1 (centres undefined) | 790 nM
COc1cc2nc(-c3ccc(Br)cc3)cc(N)c2cc1OC | 170 nM
CC(C)NCC(O)COc1ccc(Cc2ccc(OCC(O)CNC(C)C)cc2)cc1 (centres undefined) | 650 nM
CCCCCc1cnc2nc(N)nc(N)c2c1C | 210 nM
COc1cc(CC(C)NCC(O)c2cccc(C(F)(F)F)c2)ccc1OCc1ccccc1 (centres undefined) | 820 nM
Cc1cccc2[nH]c(-c3ccc(-c4ccc(CN5CCCC5CN)cc4)cc3)nc12 (centres undefined) | 810 nM
CC(C)C(C(=O)n1cc2c(ccc3nc(N)nc(N)c32)n1)C(C)C | 790 nM
Cc1ccc(Nc2nc(NN=Cc3cc4c(cc3Br)OCO4)nc(Nc3ccc([N+](=O)[O-])cc3)n2)cc1C | 750 nM
Cc1[nH]c2ccc(O)cc2c1C1CCN(CCCCCNC(=O)/C=C/c2ccc(Cl)c(Cl)c2)CC1 | 770 nM

SMILES | IC50
Cc1c(Cl)ccc2sc(N3CCN(C(=O)c4ccc([N+](=O)[O-])o4)CC3)nc12 | 750 nM
COc1ccc(CNC2Cc3ccccc3C2)cc1-c1ccc(S(=O)(=O)NCc2cccnc2)s1 | 1110 nM
CCCCN(Cc1cc(Cl)c(OCC)c(OC)c1)c1ccc(C(O)(C(F)(F)F)C(F)(F)F)cc1 | 910 nM
COc1cccc(C(=O)NC(c2ccc(Cl)cc2Cl)c2cc(Cl)c3cccnc3c2O)c1 (centres undefined) | 450 nM
CCC(C)(C)c1ccc(OCC(O)CN2CCCCC2)c(C(C)(C)CC)c1 (centres undefined) | 1300 nM
COCCNCc1ncsc1-c1ccc2c(Nc3cc(O)c(Cl)cc3F)ccnc2c1 | 550 nM
COc1ccc(Nc2cc(C)c3cc(NC(=O)c4ccncc4)ccc3n2)cc1 | 910 nM
CN1CCN(CC(=O)Nc2cccc(-c3cccc(-c4nc5ccc(C(F)(F)F)cc5[nH]4)c3)c2)CC1 | 370 nM
COc1ccc2nccc([C@H](O)CN3CCC(NCc4ccc5c(c4C)OCCO5)CC3)c2n1 | 890 nM
Cn1ncc2ccc(Nc3nccc(-c4ccc5c(c4)c(N)nn5C)n3)cc21 | 650 nM
CC(C)CNCc1cccc(-c2ccc(CNc3ccc4ncccc4c3)cc2)c1 | 1060 nM
CC1(C)C(=O)Nc2ccc3c(c21)CC1SC(=O)NN=C31 (centres undefined) | 1490 nM
O=C(Nc1ccc(OC2CCN(Cc3ccc(F)cc3)CC2)c(Cl)c1)c1ccoc1 | 1180 nM
Cc1ccccc1Cn1c(CN2CCC(C(=O)NC3CC3)CC2)cc2ccccc21 | 480 nM
Cc1cccc2[nH]c(-c3ccc(-c4ccc(NC(=O)NCc5ccc(F)cc5)cc4)cc3)nc12 | 1330 nM
Cc1cnc(-c2ccc(NC(=O)N3CCc4cc5nccc(N6CCN7CCC[C@H]7C6)c5cc43)c3ccccc23)o1 | 860 nM
CCCCCCCN1CC[C@@H](CCCc2ccnc3ccc(OC)cc23)[C@@H](CNC)C1 | 210 nM
C[C@H]1CN(Cc2cccc(-c3cc(CNC(=O)c4cccc(CC5CCN(C)CC5)c4)ccc3F)c2)CCN1C | 1090 nM
C=CCO[C@@H]1O[C@H](COC(c2ccccc2)(c2ccccc2)c2ccccc2)[C@@H](OC(C)=O)[C@H](OC(C)=O)[C@H]1NC(C)=O | 660 nM
CC1(C)N=C(N)NC(Nc2ccc(Cl)cc2)=N1 | 340 nM
Cc1sc2cc(Cl)cc(Cl)c2c1S(=O)(=O)Nc1ccc2nccc(N3CCNCC3)c2c1 | 120 nM
COc1ccc(C=CC(=O)NC2CCC(CN3CCC(c4c[nH]c5ccccc45)CC3)CC2)cc1 (centres undefined) | 780 nM and 810 nM
Cc1cccc2c(C(=O)NC3CCN(Cc4ccccc4)CC3)cc(-c3cccnc3)nc12 | 1380 nM

SMILES | IC50
CCNC(=O)c1ccc(-n2nc(C)cc2-c2ccccc2)cc1 | 1120 nM
CCN(CC)CCCC(C)Nc1c2ccccc2nc2ccc3ccccc3c12 (centres undefined) | 1040 nM
CCn1c(-c2nonc2N)nc2c(-c3cccc(Cl)c3)ncc(OCCCNCCc3cnc[nH]3)c21 | 980 nM
CCOC(=O)c1cnc2c(OC)cc(OC)c(Cl)c2c1Nc1cccc(C)c1C | 310 nM
O=C(c1cccc(-c2cccc(-c3nc4ccccc4[nH]3)c2)c1)N1CCCCC1CN1CCC(O)C1 (centres undefined) | 730 nM
Oc1cc2c(cc1CN1CCN(Cc3ccccc3F)CC1)CCC2 | 760 nM
CC1(CCCCN2CC=C(c3c[nH]c4ccccc34)CC2)C(=O)Nc2ccccc21 (centres undefined) | 140 nM
CCN(CC)CCN(Cc1ccc(-c2ccc(C(F)(F)F)cc2)cc1)C(=O)Cn1cc(Cc2cnn(C)c2)c(=O)nc1/C=C/c1cccc(F)c1F | 960 nM
O=C(NCc1ccc(F)cc1)Nc1ccc(-c2ccc(-c3nc4ccccc4[nH]3)cc2)cc1 | 90 nM
CC(=O)Nc1nc(C(=O)Nc2ccc(-c3cccc(-c4nc5c(C)cccc5[nH]4)c3)cc2)cs1 | 230 nM
COc1ccc(CN2C(=S)N(Cc3ccccc3)C(=O)C2CC(=O)Nc2ccccc2)cc1OC (centres undefined) | 840 nM
CC(=O)c1ccc2c(c1)CCN(CCC1CCC(NC(=O)c3cc4ccccc4[nH]3)CC1)CC2 (centres undefined) | 980 nM
COc1ccc(NC(=O)c2cc(-c3ccc(NC(C)=O)cc3)cnc2N)cc1 | 810 nM
CC(C)(C)c1cc(C(=O)N2CCN(c3ncccc3C(F)(F)F)CC2)n(Cc2ccccc2)n1 | 250 nM
O=C(/C=C/c1ccc(Cl)c(Cl)c1)N1CCC(CNCc2cccc3cc[nH]c23)CC1 | 1220 nM
N#Cc1ccc2c(c1)CCN(CCCn1c(-c3ccc4ccccc4c3)nc3ccncc31)CC2 | 200 nM
CCOC(=O)c1ccc(NC(=O)NNC(=O)c2ccc(CCN3CCC(c4nc(COCC(F)(F)F)c(-c5ccc(F)cc5)o4)CC3)cc2)cc1 | 570 nM
Cc1cc(NC(=O)Nc2ccc(I)c(OCCN(C)C)c2)ccc1Br | 620 nM
CC(=O)Nc1cccc(C(=O)Nc2cccc(-c3ccc(-c4nc5ccc(F)cc5[nH]4)cc3)c2)c1 | 760 nM
COc1cccc(C(=O)NCc2cccs2)c1OCc1ccccc1 | 920 nM
CC(=O)c1cccc(NC(=O)NC2CCN(CCCCCNC(=O)/C=C/c3ccc(Cl)c(Cl)c3)CC2)c1 | 840 nM
NC1CCN(CCc2ccc(NS(=O)(=O)c3cccc4ccccc34)cc2)CC1 | 1700 nM
Cc1nn(-c2cccc(C(F)(F)F)c2)c2sc(C(=O)NC3CCN(C(C)C)CC3)cc12 | 900 nM
